Source: ChEMBL document CHEMBL1201861, “Genomics of Drug Sensitity in Cancer screening data, Wellcome Trust Sanger Institute”

Experiments:
Assay in all cases: cells
Settings in all cases: Homo sapiens
NH-12 = format: functional, cell-based;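 note: growth inhibition of NH-12 cells, read out with a cell viability assay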
Description: SANGER: Inhibition of human NH-12 cell growth in a cell viability assay.

MZ1-PC = format: functional, cell-based;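 note: cell viability assay measuring growth inhibition of human MZ1-PC cells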
Description: SANGER: Inhibition of human MZ1-PC cell growth in a cell viability assay.

ATN-1 = format: functional, cell-based;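 note: growth inhibition of human ATN-1 cells, read out with a cell viability assay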
Description: SANGER: Inhibition of human ATN-1 cell growth in a cell viability assay.

TE-10 = format: functional, cell-based;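 note: growth inhibition of TE-10 cells, measured by a cell viability assay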
Description: SANGER: Inhibition of human TE-10 cell growth in a cell viability assay.

L-428 = format: functional, cell-based
Description: SANGER: Inhibition of human L-428 cell growth in a cell viability assay.

GI-1 = format: functional, cell-based;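 note: growth inhibition of human GI-1 cells, measured with a cell viability readout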
Description: SANGER: Inhibition of human GI-1 cell growth in a cell viability assay.

NB10 = format: functional, cell-based;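 note: growth inhibition of NB10 cells, read out by a cell viability assay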
Description: SANGER: Inhibition of human NB10 cell growth in a cell viability assay.

NCI-H526 = format: functional, cell-based;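 note: growth inhibition of the human NCI-H526 cell line, measured by a cell viability assay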
Description: SANGER: Inhibition of human NCI-H526 cell growth in a cell viability assay.

IA-LM = format: functional, cell-based;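 note: cell viability assay measuring growth inhibition of human IA-LM cells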
Description: SANGER: Inhibition of human IA-LM cell growth in a cell viability assay.

U-87 MG = format: functional, cell-based, U-87MG ATCC;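 note: growth inhibition of the cells measured with a viability assay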
Description: SANGER: Inhibition of human U-87-MG cell growth in a cell viability assay.

SJSA-1 = format: functional, cell-based;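 note: growth inhibition of human SJSA-1 cells, read out through a cell viability measurement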
Description: SANGER: Inhibition of human SJSA-1 cell growth in a cell viability assay.

EW-16 = format: functional, cell-based;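 note: growth inhibition of human EW-16 cells, read out as cell viability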
Description: SANGER: Inhibition of human EW-16 cell growth in a cell viability assay.

TGBC24TKB = format: functional, cell-based;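 note: growth inhibition of human TGBC24TKB cells, read out with a cell viability assay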
Description: SANGER: Inhibition of human TGBC24TKB cell growth in a cell viability assay.

LAMA-84 = format: functional, cell-based;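 note: growth inhibition of LAMA-84 cells, read out with a cell viability assay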
Description: SANGER: Inhibition of human LAMA-84 cell growth in a cell viability assay.

SK-NEP-1 = format: functional, cell-based;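 note: growth inhibition of human SK-NEP-1 cells, read out by a cell viability assay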
Description: SANGER: Inhibition of human SK-NEP-1 cell growth in a cell viability assay.

SK-PN-DW = format: functional, cell-based;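 note: growth inhibition measured with a viability assay on these cells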
Description: SANGER: Inhibition of human SK-PN-DW cell growth in a cell viability assay.

DOHH-2 = format: functional, cell-based;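 note: growth inhibition of human DOHH-2 cells, read out with a cell viability assay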
Description: SANGER: Inhibition of human DOHH-2 cell growth in a cell viability assay.

TE-6 = format: functional, cell-based;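 note: growth inhibition of TE-6 cells, read out with a cell viability assay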
Description: SANGER: Inhibition of human TE-6 cell growth in a cell viability assay.

NB69 = format: functional, cell-based;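 note: growth inhibition of NB69 cells, determined by a cell viability assay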
Description: SANGER: Inhibition of human NB69 cell growth in a cell viability assay.

NCI-H747 = format: functional, cell-based;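 note: growth inhibition of human NCI-H747 cells, read out by a cell viability assay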
Description: SANGER: Inhibition of human NCI-H747 cell growth in a cell viability assay.

MZ2-MEL = format: functional, cell-based;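 note: growth inhibition of MZ2-MEL cells read out with a cell viability assay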
Description: SANGER: Inhibition of human MZ2-MEL cell growth in a cell viability assay.

MOLT-16 = format: functional, cell-based;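 note: growth inhibition of human MOLT-16 cells, read out with a cell viability assay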
Description: SANGER: Inhibition of human MOLT-16 cell growth in a cell viability assay.

NCI-H1304 = format: functional, cell-based;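 note: growth inhibition of the cancer cell line, measured in a cell viability assay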
Description: SANGER: Inhibition of human NCI-H1304 cell growth in a cell viability assay.

EW-13 = format: functional, cell-based;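 note: growth inhibition of EW-13 cells, read out with a cell viability assay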
Description: SANGER: Inhibition of human EW-13 cell growth in a cell viability assay.

NCI-H1395 = format: functional, cell-based;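 note: cell viability assay read-out quantifying reduced proliferation of human NCI-H1395 cells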
Description: SANGER: Inhibition of human NCI-H1395 cell growth in a cell viability assay.

Becker = format: functional, cell-based;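 note: growth inhibition of Becker cells, read out with a cell viability assay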
Description: SANGER: Inhibition of human Becker cell growth in a cell viability assay.

EW-1 = format: functional, cell-based
Description: SANGER: Inhibition of human EW-1 cell growth in a cell viability assay.

BB30-HNC = format: functional, cell-based;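 note: growth inhibition of the cultured cell line, read out by a cell viability assay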
Description: SANGER: Inhibition of human BB30-HNC cell growth in a cell viability assay.

GI-ME-N = format: functional, cell-based;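 note: growth inhibition of human GI-ME-N cells, read out with a cell viability assay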
Description: SANGER: Inhibition of human GI-ME-N cell growth in a cell viability assay.

Mo = format: functional, cell-based
Description: SANGER: Inhibition of human Mo-T cell growth in a cell viability assay.

DEL = format: functional, cell-based;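 note: growth inhibition of the human DEL cell line, read out with a cell viability assay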
Description: SANGER: Inhibition of human DEL cell growth in a cell viability assay.

L-363 = format: functional, cell-based
Description: SANGER: Inhibition of human L-363 cell growth in a cell viability assay.

OVCAR-4 = format: functional, cell-based;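 note: growth inhibition of human OVCAR-4 cells, measured with a cell viability assay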
Description: SANGER: Inhibition of human OVCAR-4 cell growth in a cell viability assay.

NCI-H1581 = format: functional, cell-based;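 note: cell growth inhibition read out by a viability assay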
Description: SANGER: Inhibition of human NCI-H1581 cell growth in a cell viability assay.

RKO = format: functional, cell-based;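 note: growth inhibition of human RKO cells, read out with a cell viability assay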
Description: SANGER: Inhibition of human RKO cell growth in a cell viability assay.

A101D = format: functional, cell-based;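 note: growth inhibition of the cell line, measured with a viability assay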
Description: SANGER: Inhibition of human A101D cell growth in a cell viability assay.

MMAC-SF = format: functional, cell-based;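 note: growth inhibition of human MMAC-SF cells, read out with a cell viability assay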
Description: SANGER: Inhibition of human MMAC-SF cell growth in a cell viability assay.

KARPAS-45 = format: functional, cell-based;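 note: inhibition of cell line growth, read out through a viability assay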
Description: SANGER: Inhibition of human KARPAS-45 cell growth in a cell viability assay.

KMOE-2 = format: functional, cell-based;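 note: growth inhibition of human KMOE-2 cells, read out with a cell viability assay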
Description: SANGER: Inhibition of human KMOE-2 cell growth in a cell viability assay.

HL-60 = format: functional, cell-based;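 note: growth inhibition of human HL-60 cells, read out with a cell viability assay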
Description: SANGER: Inhibition of human HL-60 cell growth in a cell viability assay.

MEG-01 = format: functional, cell-based;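 note: growth inhibition of MEG-01 cells, read out by a cell viability assay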
Description: SANGER: Inhibition of human MEG-01 cell growth in a cell viability assay.

EW-18 = format: functional, cell-based;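 note: growth inhibition of EW-18 cells, read out by a cell viability assay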
Description: SANGER: Inhibition of human EW-18 cell growth in a cell viability assay.

CAS-1 = format: functional, cell-based;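 note: growth inhibition of CAS-1 cells, measured with a cell viability assay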
Description: SANGER: Inhibition of human CAS-1 cell growth in a cell viability assay.

HDLM-2 = format: functional, cell-based;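 note: cell viability assay measuring suppression of HDLM-2 proliferation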
Description: SANGER: Inhibition of human HDLM-2 cell growth in a cell viability assay.

A388 = format: functional, cell-based;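 note: growth inhibition of human A388 cells, read out with a cell viability assay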
Description: SANGER: Inhibition of human A388 cell growth in a cell viability assay.

ES4 = format: functional, cell-based;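 note: growth inhibition of human ES4 cells, read out by a cell viability assay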
Description: SANGER: Inhibition of human ES4 cell growth in a cell viability assay.

EKVX = format: functional, cell-based;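 note: growth inhibition of human EKVX cells, read out with a cell viability assay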
Description: SANGER: Inhibition of human EKVX cell growth in a cell viability assay.

MHH-NB-11 = format: functional, cell-based;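 note: growth inhibition of human MHH-NB-11 cells, read out by a cell viability assay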
Description: SANGER: Inhibition of human MHH-NB-11 cell growth in a cell viability assay.

SNU-5 = format: functional, cell-based;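 note: cell viability readout used to measure growth inhibition in human NCI-SNU-5 cells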
Description: SANGER: Inhibition of human NCI-SNU-5 cell growth in a cell viability assay.

HCC1187 = format: functional, cell-based;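 note: growth inhibition of HCC1187 cells, read out with a cell viability assay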
Description: SANGER: Inhibition of human HCC1187 cell growth in a cell viability assay.

KLE = format: functional, cell-based;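 note: growth inhibition of human KLE cells, read out with a cell viability assay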
Description: SANGER: Inhibition of human KLE cell growth in a cell viability assay.

JVM-3 = format: functional, cell-based;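 note: growth inhibition of human JVM-3 cells, read out with a cell viability assay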
Description: SANGER: Inhibition of human JVM-3 cell growth in a cell viability assay.

COLO-320-HSR = format: functional, cell-based;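 note: growth inhibition of COLO-320-HSR cells, determined with a cell viability assay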
Description: SANGER: Inhibition of human COLO-320-HSR cell growth in a cell viability assay.

SK-N-FI = format: functional, cell-based;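 note: cell viability assay measuring growth inhibition of human SK-N-FI cells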
Description: SANGER: Inhibition of human SK-N-FI cell growth in a cell viability assay.

Ramos-2G6-4C10 = format: functional, cell-based
Description: SANGER: Inhibition of human Ramos-2G6-4C10 cell growth in a cell viability assay.

LU-134-A = format: functional, cell-based
Description: SANGER: Inhibition of human LU-134-A cell growth in a cell viability assay.

ONS-76 = format: functional, cell-based
Description: SANGER: Inhibition of human ONS-76 cell growth in a cell viability assay.

NCI-H209 = format: functional, cell-based
Description: SANGER: Inhibition of human NCI-H209 cell growth in a cell viability assay.

MZ7-mel = format: functional, cell-based
Description: SANGER: Inhibition of human MZ7-mel cell growth in a cell viability assay.

KP-N-YS = format: functional, cell-based
Description: SANGER: Inhibition of human KP-N-YS cell growth in a cell viability assay.

DMS-114 = format: functional, cell-based
SF-539 = format: functional, cell-based
Description: SANGER: Inhibition of human SF539 cell growth in a cell viability assay.

SK-MEL-1 = format: functional, cell-based
Description: SANGER: Inhibition of human SK-MEL-1 cell growth in a cell viability assay.

UACC-257 = format: functional, cell-based
Description: SANGER: Inhibition of human UACC-257 cell growth in a cell viability assay.

MC116 = format: functional, cell-based
Description: SANGER: Inhibition of human MC116 cell growth in a cell viability assay.

HT-144 = format: functional, cell-based
Description: SANGER: Inhibition of human HT-144 cell growth in a cell viability assay.

CC(C)=CC[C@@H](O)C1=CC(=O)c2c(O)ccc(O)c2C1=O [SHIKONIN]
IC50 (NH-12): 850 nM | IC50 (MZ1-PC): 19.3 nM | IC50 (ATN-1): 849 nM | IC50 (TE-10): 986 nM | IC50 (L-428): 1210 nM | IC50 (GI-1): 568 nM | IC50 (NB10): 1340 nM | IC50 (NCI-H526): 2640 nM | IC50 (IA-LM): 2080 nM | IC50 (U-87 MG): 1280 nM | IC50 (SJSA-1): 5530 nM | IC50 (EW-16): 299 nM | IC50 (TGBC24TKB): > 16000 nM | IC50 (LAMA-84): 1210 nM | IC50 (SK-NEP-1): 1080 nM | IC50 (SK-PN-DW): 36.5 nM | IC50 (DOHH-2): 706 nM | IC50 (TE-6): 2970 nM | IC50 (NB69): 213 nM | IC50 (NCI-H747): 441 nM | IC50 (MZ2-MEL): 385 nM | IC50 (MOLT-16): 2760 nM | IC50 (NCI-H1304): > 16000 nM | IC50 (EW-13): 267 nM | IC50 (NCI-H1395): > 16000 nM | IC50 (Becker): 1580 nM | IC50 (EW-1): 844 nM | IC50 (BB30-HNC): 243 nM | IC50 (GI-ME-N): 552 nM | IC50 (Mo): 820 nM | IC50 (DEL): 154 nM | IC50 (L-363): > 16000 nM | IC50 (OVCAR-4): 670 nM | IC50 (NCI-H1581): > 16000 nM | IC50 (RKO): 270 nM | IC50 (A101D): < 62.5 nM | IC50 (MMAC-SF): 752 nM | IC50 (KARPAS-45): 9990 nM | IC50 (KMOE-2): 1240 nM | IC50 (HL-60): 1920 nM | IC50 (MEG-01): 451 nM | IC50 (EW-18): 529 nM | IC50 (CAS-1): 462 nM | IC50 (HDLM-2): > 16000 nM | IC50 (A388): 867 nM | IC50 (ES4): 4630 nM | IC50 (EKVX): 3670 nM | IC50 (MHH-NB-11): 486 nM | IC50 (SNU-5): 9540 nM | IC50 (HCC1187): 1020 nM | IC50 (KLE): 685 nM | IC50 (JVM-3): > 16000 nM | IC50 (COLO-320-HSR): 384 nM | IC50 (SK-N-FI): 7690 nM | IC50 (Ramos-2G6-4C10): 315 nM | IC50 (LU-134-A): 810 nM | IC50 (ONS-76): 358 nM | IC50 (NCI-H209): 12300 nM | IC50 (MZ7-mel): 114 nM | IC50 (KP-N-YS): 352 nM | IC50 (DMS-114): > 16000 nM | IC50 (SF-539): 857 nM | IC50 (SK-MEL-1): > 16000 nM | IC50 (UACC-257): > 16000 nM | IC50 (MC116): 1790 nM | IC50 (HT-144): 561 nM

CCNC(=O)c1noc(-c2cc(C(C)C)c(O)cc2O)c1-c1ccc(CN2CCOCC2)cc1 [LUMINESPIB]
IC50 (NH-12): 44.4 nM | IC50 (MZ1-PC): 26.4 nM | IC50 (ATN-1): > 256 nM | IC50 (TE-10): 19.8 nM | IC50 (L-428): 77 nM | IC50 (GI-1): 148 nM | IC50 (NB10): 237 nM | IC50 (NCI-H526): 187 nM | IC50 (IA-LM): 10.9 nM | IC50 (U-87 MG): 32.9 nM | IC50 (SJSA-1): 20.4 nM | IC50 (EW-16): 7.49 nM | IC50 (TGBC24TKB): > 256 nM | IC50 (LAMA-84): 41.7 nM | IC50 (SK-NEP-1): 159 nM | IC50 (SK-PN-DW): 55.9 nM | IC50 (DOHH-2): 186 nM | IC50 (TE-6): 246 nM | IC50 (NB69): 11 nM | IC50 (NCI-H747): 45.7 nM | IC50 (MZ2-MEL): 31.8 nM | IC50 (MOLT-16): 17.9 nM | IC50 (NCI-H1304): 82.7 nM | IC50 (EW-13): 5.18 nM | IC50 (NCI-H1395): > 256 nM | IC50 (Becker): 15.1 nM | IC50 (EW-1): 28.2 nM | IC50 (BB30-HNC): 9.52 nM | IC50 (GI-ME-N): 74.3 nM | IC50 (Mo): > 256 nM | IC50 (DEL): 112 nM | IC50 (L-363): 69 nM | IC50 (OVCAR-4): 38.6 nM | IC50 (NCI-H1581): > 256 nM | IC50 (RKO): 8.26 nM | IC50 (A101D): 19.9 nM | IC50 (MMAC-SF): 43 nM | IC50 (KARPAS-45): 93.5 nM | IC50 (KMOE-2): 57.5 nM | IC50 (HL-60): 18.1 nM | IC50 (MEG-01): 173 nM | IC50 (EW-18): 106 nM | IC50 (CAS-1): 120 nM | IC50 (HDLM-2): 41.1 nM | IC50 (A388): 21.2 nM | IC50 (ES4): 15 nM | IC50 (EKVX): 105 nM | IC50 (MHH-NB-11): 254 nM | IC50 (SNU-5): > 256 nM | IC50 (HCC1187): > 256 nM | IC50 (KLE): 162 nM | IC50 (JVM-3): > 256 nM | IC50 (COLO-320-HSR): 185 nM | IC50 (SK-N-FI): > 256 nM | IC50 (Ramos-2G6-4C10): 76.5 nM | IC50 (LU-134-A): 57.1 nM | IC50 (ONS-76): 29.5 nM | IC50 (NCI-H209): > 256 nM | IC50 (MZ7-mel): 43.3 nM | IC50 (KP-N-YS): 83.5 nM | IC50 (DMS-114): > 256 nM | IC50 (SF-539): > 256 nM | IC50 (SK-MEL-1): > 256 nM | IC50 (UACC-257): 75.1 nM | IC50 (MC116): > 256 nM | IC50 (HT-144): 1.55 nM
